In PMC7049299, “UGT74AF3 enzymes specifically catalyze the glucosylation of 4-hydroxy-2,5-dimethylfuran-3(2H)-one, an important volatile compound in Camellia sinensis” (Horticulture Research, 2020):

Legend:
[1] = biological target: T1, UGT74AF3b (Camellia sinensis, UniProt A0A4S4DWR1); assay: glucosyltransferase kinetics (UDP-Glo assay / LC-MS; readout for kinetics not told); type: biochemical; conditions: optimized conditions (optimum pH 8.5, 30 °C); sugar donor not stated for kinetics, presumably UDP-glucose
T1 construct: gene TEA_014443; full-length, N-terminal GST tag (pGEX-4T-1), E. coli BL21(DE3) pLysS, GST-resin purified; Ala at residue 456
T1 sequence (A0A4S4DWR1 entry or part of it): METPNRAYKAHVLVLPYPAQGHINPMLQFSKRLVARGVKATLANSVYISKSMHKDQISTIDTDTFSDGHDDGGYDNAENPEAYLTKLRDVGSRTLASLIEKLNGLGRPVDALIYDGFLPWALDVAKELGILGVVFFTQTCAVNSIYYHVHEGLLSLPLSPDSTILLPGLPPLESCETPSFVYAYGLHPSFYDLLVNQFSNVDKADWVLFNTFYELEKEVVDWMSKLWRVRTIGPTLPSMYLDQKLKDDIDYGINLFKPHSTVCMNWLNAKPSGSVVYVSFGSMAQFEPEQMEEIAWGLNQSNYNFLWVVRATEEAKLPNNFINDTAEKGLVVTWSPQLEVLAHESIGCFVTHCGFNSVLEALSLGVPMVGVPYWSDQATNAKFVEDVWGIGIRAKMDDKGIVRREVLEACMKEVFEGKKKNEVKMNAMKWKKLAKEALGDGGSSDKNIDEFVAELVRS
Text: glucosyltransferase kinetics (UDP-Glo assay / LC-MS; readout for kinetics not told) on UGT74AF3b

[2] = biological target: T1, UGT74AF3b; assay: relative glycosyltransferase activity; type: biochemical; conditions: UDP-Glc, UDP-Gal or UDP-GA as sugar donor

- Km [1]: 5.14 ± 1.58 µM
SMILES: CC1=C(O)C(=O)C(C)O1 (centres unmarked) [HDMF, 4-Hydroxy-2,5-dimethylfuran-3(2H)-one]
- relative enzymatic activity [2]: The A456V mutant exhibited enhanced glucosylation activity toward HDMF, EHMF, and HMF
